Seven molecules from PubChem BioAssay (NCI) can be followed below.

Test systems include SNB-19 CNS; A498 renal; RPMI-8226 leukemia; HL-60(TB) leukemia; HS 578T breast; HCC-2998 colon; SW-620 colon; UO-31 renal; OVCAR-3 ovarian; K-562 leukemia.
Assay in all cases: DTP human tumour cell line panel, 48 h

Structures are written as SMILES.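 Results reflect a 48-hour exposure of cells in 96-well plates to compound at five concentrations. GI50 is the concentration that inhibits growth by half. At the TGI there is no net growth.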

With `C1=C(c2ccccc2)C(c2ccc(OCCN3CCCCC3)cc2)Oc2ccccc21` (stereo not drawn), the GI50 was 2.06 µM in the experiment on SNB-19 CNS; 1.67 µM in the experiment on A498 renal; 2.25 µM with RPMI-8226 leukemia; 1.73 µM in the experiment with HL-60(TB) leukemia; 2.18 µM in the experiment with HS 578T breast; 1.72 µM in the experiment with HCC-2998 colon. The GI50 was 1.83 µM in the experiment on SW-620 colon, 1.41 µM in the experiment with UO-31 renal, 1.88 µM with OVCAR-3 ovarian and 1.53 µM with K-562 leukemia. The TGI worked out at 4.16 µM with SNB-19 CNS; 3.17 µM in the experiment with A498 renal; 5.02 µM with RPMI-8226 leukemia; 3.76 µM with HL-60(TB) leukemia; 5.23 µM in the experiment on HS 578T breast; 3.38 µM in the experiment with HCC-2998 colon. Also, the TGI was 3.62 µM with SW-620 colon, 3.16 µM with UO-31 renal, 4.14 µM in the experiment with OVCAR-3 ovarian and 3.38 µM in the experiment on K-562 leukemia.

Consider `O=C1c2ccn(CCCCN3CCCCC3)c2C(=O)c2c1c(O)c1ccccc1c2O`, for which the GI50 in the experiment with SNB-19 CNS was 19.1 µM; in the experiment on A498 renal it was 15.3 µM; with RPMI-8226 leukemia, 2.74 µM; in the experiment on HL-60(TB) leukemia, 24.5 µM; in the experiment with HS 578T breast, 27 µM; in the experiment with HCC-2998 colon it was 2.95 µM. The GI50 with SW-620 colon was 3.18 µM; with UO-31 renal, 20.9 µM; in the experiment on OVCAR-3 ovarian, 10.5 µM; in the experiment with K-562 leukemia it was 2.68 µM. Further, the TGI is above 90.5 µM in the experiment on SNB-19 CNS; 35.1 µM with A498 renal; 9.29 µM in the experiment with RPMI-8226 leukemia; above 100 µM with HL-60(TB) leukemia; 65.1 µM with HS 578T breast; 9.98 µM with HCC-2998 colon. The figures for the TGI in the experiment with SW-620 colon, in the experiment with UO-31 renal and with OVCAR-3 ovarian were 10.6 µM, above 100 µM and 41.9 µM, respectively.

In the case of `CS(=O)(=O)CCn1c(=O)c(Oc2ccc(F)cc2F)cc2cnc(NC3CCOCC3)nc21`, the GI50 in the experiment on SNB-19 CNS is above 25 µM; in the experiment with A498 renal, 15.8 µM; in the experiment on RPMI-8226 leukemia, above 25 µM; in the experiment with HL-60(TB) leukemia it was above 25 µM; in the experiment with HS 578T breast, above 25 µM; with HCC-2998 colon, above 25 µM. Also, the GI50 with SW-620 colon, in the experiment with UO-31 renal, in the experiment with OVCAR-3 ovarian and with K-562 leukemia was above 25 µM each time. Moreover, the TGI in the experiment on SNB-19 CNS, in the experiment with A498 renal, in the experiment with RPMI-8226 leukemia, in the experiment with HL-60(TB) leukemia, with HS 578T breast and with HCC-2998 colon was above 25 µM each time. In addition, the TGI in the experiment on SW-620 colon, in the experiment with UO-31 renal, in the experiment on OVCAR-3 ovarian and in the experiment with K-562 leukemia was above 25 µM in each case.

Turning to `O=C(Nc1ccccc1O)c1ccc(CNC(=O)c2sccc2Nc2ccnc(C(F)(F)F)c2)cc1`, the GI50 with SNB-19 CNS was 13.2 µM; in the experiment on A498 renal it was 2.62 µM; with RPMI-8226 leukemia, 3.59 µM; in the experiment with HL-60(TB) leukemia it was 6.27 µM; in the experiment with HS 578T breast, 12.7 µM; in the experiment on HCC-2998 colon it was 10.1 µM. In addition, the GI50 in the experiment with SW-620 colon was 5.36 µM; in the experiment on UO-31 renal it was 2.82 µM; with OVCAR-3 ovarian, 7.48 µM; in the experiment on K-562 leukemia, 5.72 µM. The TGI in the experiment on SNB-19 CNS was 31.1 µM; in the experiment on A498 renal, 9.7 µM; with RPMI-8226 leukemia, 36.2 µM; with HL-60(TB) leukemia it was 44.8 µM; in the experiment with HS 578T breast it was above 100 µM; in the experiment with HCC-2998 colon, 22.4 µM. In addition, the TGI was determined as 20.4 µM in the experiment with SW-620 colon, 15.9 µM in the experiment with UO-31 renal, 21.6 µM in the experiment with OVCAR-3 ovarian and 62.5 µM in the experiment on K-562 leukemia.

For `C[C@@H](Oc1ccc2[nH]nc(/C=C/c3cnn(CCO)c3)c2c1)c1c(Cl)cncc1Cl`, the 50% growth inhibitory concentration (GI50) with SNB-19 CNS is 0.364 µM; in the experiment on A498 renal, below 0.01 µM; with RPMI-8226 leukemia, 1.54 µM; in the experiment on HL-60(TB) leukemia, 0.237 µM; in the experiment on HS 578T breast it was 0.106 µM; in the experiment on HCC-2998 colon, 1.43 µM. For the same molecule, the GI50 with SW-620 colon was 0.0574 µM; with UO-31 renal, 0.217 µM; with OVCAR-3 ovarian, 0.462 µM; in the experiment with K-562 leukemia, 0.0249 µM. Also, the TGI was determined as 3.52 µM in the experiment on SNB-19 CNS; 0.274 µM with A498 renal; 4.41 µM in the experiment with RPMI-8226 leukemia; 3.21 µM in the experiment on HL-60(TB) leukemia; 0.681 µM with HS 578T breast; 5.21 µM in the experiment on HCC-2998 colon. In addition, the TGI with SW-620 colon is above 100 µM; in the experiment with OVCAR-3 ovarian, 3.56 µM; in the experiment with K-562 leukemia, above 33.9 µM.

For the molecule `CC(=O)c1cc2c(c3ccsc13)-c1ccccc1CC2`, the GI50 with SNB-19 CNS was above 100 µM; in the experiment with A498 renal, 17.2 µM; in the experiment on RPMI-8226 leukemia, 25.8 µM; in the experiment with HL-60(TB) leukemia, 30.8 µM; in the experiment on HS 578T breast it was 2.17 µM; in the experiment with HCC-2998 colon, 8.95 µM. Also, the GI50 in the experiment on SW-620 colon was 33.7 µM; in the experiment with UO-31 renal it was 26.6 µM; with OVCAR-3 ovarian, 25.4 µM; with K-562 leukemia it was 14.3 µM. Moreover, the TGI in the experiment on SNB-19 CNS was above 100 µM; with A498 renal, 67.8 µM; in the experiment with RPMI-8226 leukemia, 75 µM; in the experiment on HL-60(TB) leukemia, above 100 µM; with HS 578T breast, 44.6 µM; in the experiment with HCC-2998 colon, 27.3 µM. For the same molecule, the TGI in the experiment on SW-620 colon was above 100 µM; with UO-31 renal, 85.2 µM; with OVCAR-3 ovarian it was above 100 µM; with K-562 leukemia it was 90.5 µM.

In the case of `CC(C)(C)[Si](C)(C)OCC1C=CC(n2cnc3c(N)ncnc32)O1` (stereo not drawn), the TGI was above 100 µM with SNB-19 CNS; above 100 µM in the experiment with A498 renal; 58.3 µM in the experiment on RPMI-8226 leukemia; 40.3 µM in the experiment with HL-60(TB) leukemia; above 100 µM in the experiment with HS 578T breast; above 100 µM in the experiment with HCC-2998 colon. Besides, the TGI is above 95.8 µM in the experiment with SW-620 colon, above 100 µM in the experiment with UO-31 renal, above 67.9 µM with OVCAR-3 ovarian and 54 µM in the experiment on K-562 leukemia.
